Several values for one entry are separate records, joined by “and”; a condition that tells them apart may be missing. Equal values may be shown once.
Test system: human corneal epithelial cells (EpiOcular™ tissue)
Assay: Trans-epithelial transport across epithelium construct
Assay type: in vitro ADME
Procedure: The transport of the CAPEG4 across an epithelium construct was studied. The epithelium is the outer layer of the cornea and transport across the epithelium has proven to be challenging.
Specifically, the CAPEG4 construct in solution (10) was added to the top of an apparatus including a tissue culture plastic insert (11) containing culture medium (12) and an epithelium construct. (FIG. 19).

[1] = 16 mg/mL CAPEG4, blank insert (no tissue) at 15 min

Question: What does the source list for NCCOCCOCCOCCOCCC(=O)O [CAPEG4]?
Answer: Bottom Average (1 mg/ml CAPEG4, 15 min): 13 mcg/well; Top Average (1 mg/ml CAPEG4, 15 min): 449 mcg/well; Top mcg/well (1 mg/ml CAPEG4, 15 min): 427 mcg/well and 472 mcg/well; Bottom % (stock) (1 mg/ml CAPEG4, 15 min, stock 543 mcg/well): 2.4%; Bottom Average (1 mg/ml CAPEG4, 30 min): 31 mcg/well; Bottom mcg/well (1 mg/ml CAPEG4, 30 min): 26 mcg/well and 37 mcg/well; Top Average (1 mg/ml CAPEG4, 30 min): 446 mcg/well; Top mcg/well (1 mg/ml CAPEG4, 30 min): 448 mcg/well and 445 mcg/well; Bottom % (stock) (1 mg/ml CAPEG4, 30 min, stock 543 mcg/well): 5.8%; Bottom Average (1 mg/ml CAPEG4, 45 min): 8 mcg/well; Bottom mcg/well (1 mg/ml CAPEG4, 45 min): 9 mcg/well and 8 mcg/well; Top Average (1 mg/ml CAPEG4, 45 min): 443 mcg/well; Top mcg/well (1 mg/ml CAPEG4, 45 min): 459 mcg/well and 428 mcg/well; Bottom % (stock) (1 mg/ml CAPEG4, 45 min, stock 543 mcg/well): 1.5%; Bottom Average (1 mg/ml CAPEG4, 60 min): 9 mcg/well; Bottom mcg/well (1 mg/ml CAPEG4, 60 min): 8 mcg/well and 11 mcg/well; Top Average (1 mg/ml CAPEG4, 60 min): 421 mcg/well; Top mcg/well (1 mg/ml CAPEG4, 60 min): 454 mcg/well and 388 mcg/well; Bottom % (stock) (1 mg/ml CAPEG4, 60 min, stock 543 mcg/well): 1.7%; Bottom Average (1 mg/ml CAPEG4, 90 min): 31 mcg/well; Top Average (1 mg/ml CAPEG4, 90 min): 463 mcg/well; Top mcg/well (1 mg/ml CAPEG4, 90 min): 467 mcg/well and 459 mcg/well; Bottom % (stock) (1 mg/ml CAPEG4, 90 min, stock 543 mcg/well): 5.7%; Bottom Average (1 mg/ml CAPEG4, 120 min): 25 mcg/well; Bottom mcg/well (1 mg/ml CAPEG4, 120 min): 21 mcg/well and 30 mcg/well; Top Average (1 mg/ml CAPEG4, 120 min): 481 mcg/well; Top mcg/well (1 mg/ml CAPEG4, 120 min): 453 mcg/well and 510 mcg/well; Bottom % (stock) (1 mg/ml CAPEG4, 120 min, stock 543 mcg/well): 4.7%; Bottom Average (1 mg/ml CAPEG4, Time 0 harvest): 3 mcg/well; Bottom mcg/well (1 mg/ml CAPEG4, Time 0 harvest): 4 mcg/well and 3 mcg/well; Top Average (1 mg/ml CAPEG4, Time 0 harvest): 450 mcg/well; Top mcg/well (1 mg/ml CAPEG4, Time 0 harvest): 446 mcg/well and 453 mcg/well; Bottom % (stock) (1 mg/ml CAPEG4, Time 0 harvest, stock 543 mcg/well): 0.6%; Bottom Average (16 mg/mL CAPEG4, 15 min): 60 mcg/well; Bottom mcg/well (16 mg/mL CAPEG4, 15 min): 58 mcg/well and 62 mcg/well; Top Average (16 mg/mL CAPEG4, 15 min): 6375 mcg/well; Top mcg/well (16 mg/mL CAPEG4, 15 min): 5842 mcg/well and 6908 mcg/well; Bottom % (stock) (16 mg/mL CAPEG4, 15 min, stock 8186 mcg/well): 0.7%; Bottom Average (16 mg/mL CAPEG4, 30 min): 99 mcg/well; Bottom mcg/well (16 mg/mL CAPEG4, 30 min): 93 mcg/well and 105 mcg/well; Top Average (16 mg/mL CAPEG4, 30 min): 6312 mcg/well; Top mcg/well (16 mg/mL CAPEG4, 30 min): 6099 mcg/well and 6526 mcg/well; Bottom % (stock) (16 mg/mL CAPEG4, 30 min, stock 8186 mcg/well): 1.2%; Bottom Average (16 mg/mL CAPEG4, 45 min): 548 mcg/well; Bottom mcg/well (16 mg/mL CAPEG4, 45 min): 677 mcg/well and 418 mcg/well; Top Average (16 mg/mL CAPEG4, 45 min): 6335 mcg/well; Top mcg/well (16 mg/mL CAPEG4, 45 min): 6313 mcg/well and 6356 mcg/well; Bottom % (stock) (16 mg/mL CAPEG4, 45 min, stock 8186 mcg/well): 6.7%; Bottom Average (16 mg/mL CAPEG4, 60 min): 149 mcg/well; Bottom mcg/well (16 mg/mL CAPEG4, 60 min): 160 mcg/well and 139 mcg/well; Top Average (16 mg/mL CAPEG4, 60 min): 6972 mcg/well; Top mcg/well (16 mg/mL CAPEG4, 60 min): 6450 mcg/well and 7494 mcg/well; Bottom % (stock) (16 mg/mL CAPEG4, 60 min, stock 8186 mcg/well): 1.8%; Bottom Average (16 mg/mL CAPEG4, 90 min): 525 mcg/well; Bottom mcg/well (16 mg/mL CAPEG4, 90 min): 525 mcg/well; Top Average (16 mg/mL CAPEG4, 90 min): 6457 mcg/well; Top mcg/well (16 mg/mL CAPEG4, 90 min): 6122 mcg/well and 6792 mcg/well; Bottom % (stock) (16 mg/mL CAPEG4, 90 min, stock 8186 mcg/well): 6.4%; Bottom Average [1]: 1837 mcg/well; Bottom mcg/well [1]: 1837 mcg/well; Top Average [1]: 7857 mcg/well; Top mcg/well [1]: 7857 mcg/well; Bottom % (stock) (16 mg/mL CAPEG4, blank insert (no tissue) at 15 min, stock 8186 mcg/well): 23%

Reference: patent US10413529B2, “Methods of inhibiting cataracts and presbyopia” (UNIVERSITY OF MASSACHUSETTS, priority 2013, dated 2019)
